Assay results as given in ChEMBL document CHEMBL6121038, “Design and Synthesis of Hederagenin Derivatives for the Treatment of Sepsis by Targeting TAK1 and Regulating the TAK1-NF-κB/MAPK Signaling” (J Med Chem, 2025).

What was measured:
RAW264.7 [1] = assay: Antiinflammatory activity in LPS-induced mouse RAW264.7 cells assessed as inhibition of TNF-alpha level at 20 uM incubated for 24 hrs by ELISA method relative to control; assay type: functional
RAW264.7 [2] = assay: Antiinflammatory activity in LPS-induced mouse RAW264.7 cells assessed as inhibition of IL-6 level at 20 uM incubated for 24 hrs by ELISA method relative to control; assay type: functional
RAW264.7 [3] = assay: Cytotoxicity against mouse RAW264.7 cells assessed as cell viability at 40 uM measured after 24 hrs by MTT assay; assay type: toxicity, cell-based; conditions: raw264.7, 24 h
[4] = Tmax in BALB/c mouse at 10 mg/kg, po measured upto 24 hrs by LC/MS-MS analysis; assay type: ADME, organism-based; conditions: in vivo
[5] = AUC (0 to t) in BALB/c mouse at 10 mg/kg, po measured upto 24 hrs by LC/MS-MS analysis; assay type: ADME, organism-based; conditions: in vivo
[6] = Half life in BALB/c mouse at 10 mg/kg, po measured upto 24 hrs by LC/MS-MS analysis; assay type: ADME, organism-based; conditions: in vivo
[7] = Cmax in BALB/c mouse at 10 mg/kg, po measured upto 24 hrs by LC/MS-MS analysis; assay type: ADME, organism-based; conditions: in vivo
[8] = AUC (0 to infinity) in BALB/c mouse at 10 mg/kg, po measured upto 24 hrs by LC/MS-MS analysis; assay type: ADME, organism-based; conditions: in vivo
[9] = Toxicity in BALB/c mouse assessed as histopathological lesions in lung at 10 mg/kg, po by H and E staining based analysis; assay type: organism-based; conditions: in vivo

| Structure (SMILES) | inhibition at 20 µM (RAW264.7 [1]) [%] | inhibition at 20 µM (RAW264.7 [2]) [%] | Activity (RAW264.7 [3]) | further results |
| --- | --- | --- | --- | --- |
| CCOC(=O)c1noc2c1C[C@@]1(C)[C@@H](CC[C@]3(C)[C@@H]1CC=C1[C@@H]4CC(C)(C)CC[C@]4(C(=O)OCc4ccccc4)CC[C@]13C)[C@]2(C)COC(=O)c1ccccc1C(=O)N1CCN(C(C)C)CC1 | 22.9 | 11.4 | Non-toxic | – |
| CCOC(=O)c1noc2c1C[C@@]1(C)[C@@H](CC[C@]3(C)[C@@H]1CC=C1[C@@H]4CC(C)(C)CC[C@]4(C(=O)OCc4ccccc4)CC[C@]13C)[C@]2(C)COC(=O)CCC(=O)N[C@@H](Cc1ccccc1)C(=O)OC | 31.7 | 25 | Non-toxic | – |
| CCOC(=O)c1noc2c1C[C@@]1(C)[C@@H](CC[C@]3(C)[C@@H]1CC=C1[C@@H]4CC(C)(C)CC[C@]4(C(=O)OCc4ccccc4)CC[C@]13C)[C@]2(C)COC(=O)CCC(=O)N[C@H](CCSC)C(=O)OC | 52.2 | 44.6 | Non-toxic | – |
| CCOC(=O)c1noc2c1C[C@@]1(C)[C@@H](CC[C@]3(C)[C@@H]1CC=C1[C@@H]4CC(C)(C)CC[C@]4(C(=O)OCc4ccccc4)CC[C@]13C)[C@]2(C)COC(=O)[C@H](CCC(=O)OC)NC(=O)OC(C)(C)C | 60 | 55.4 | Non-toxic | – |
| CCOC(=O)c1noc2c1C[C@@]1(C)[C@@H](CC[C@]3(C)[C@@H]1CC=C1[C@@H]4CC(C)(C)CC[C@]4(C(=O)OCc4ccccc4)CC[C@]13C)[C@]2(C)COC(=O)CCC(=O)N[C@@H](CCC(=O)OC)C(=O)OC | 33.6 | 22 | Non-toxic | – |
| CCOC(=O)c1noc2c1C[C@@]1(C)[C@@H](CC[C@]3(C)[C@@H]1CC=C1[C@@H]4CC(C)(C)CC[C@]4(C(=O)OCc4ccccc4)CC[C@]13C)[C@]2(C)COC(=O)CCC(=O)N1CCCCC1 | 61 | 50.6 | Non-toxic | – |
| CCOC(=O)c1noc2c1C[C@@]1(C)[C@@H](CC[C@]3(C)[C@@H]1CC=C1[C@@H]4CC(C)(C)CC[C@]4(C(=O)OCc4ccccc4)CC[C@]13C)[C@]2(C)COC(=O)[C@H](CC(C)C)NC(=O)OC(C)(C)C | 7.45 | 4.25 | Non-toxic | – |
| CC1(C)CC[C@]2(C(=O)OCc3ccccc3)CC[C@]3(C)C(=CC[C@@H]4[C@@]5(C)Cc6c(C(=O)O)noc6[C@@](C)(CO)[C@@H]5CC[C@]43C)[C@@H]2C1 | – | – | – | Tmax [4]: 3 h; AUC(0-t) at 24 h [5]: 2580 ng·h/mL; half-life [6]: 5.54 h; Cmax [7]: 285 ng/mL; AUC(0-inf) [8]: 2720 ng·h/mL |
| CCOC(=O)c1noc2c1C[C@@]1(C)[C@@H](CC[C@]3(C)[C@@H]1CC=C1[C@@H]4CC(C)(C)CC[C@]4(C(=O)OCc4ccccc4)CC[C@]13C)[C@]2(C)COC(=O)CCC(=O)N1CCN(C(C)C)CC1 | 78.1 | 68.6 | Non-toxic | – |
| CCOC(=O)c1noc2c1C[C@@]1(C)[C@@H](CC[C@]3(C)[C@@H]1CC=C1[C@@H]4CC(C)(C)CC[C@]4(C(=O)OCc4ccccc4)CC[C@]13C)[C@]2(C)COC(=O)CCSSCCC(=O)N[C@@H](CC(=O)OC)C(=O)OC | 7.53 | 6.08 | Non-toxic | – |
| CCOC(=O)c1noc2c1C[C@@]1(C)[C@@H](CC[C@]3(C)[C@@H]1CC=C1[C@@H]4CC(C)(C)CC[C@]4(C(=O)OCc4ccccc4)CC[C@]13C)[C@]2(C)COC(=O)CCc1c[nH]c2ccccc12 | 15.8 | 18.9 | Non-toxic | – |
| CCOC(=O)c1noc2c1C[C@@]1(C)[C@@H](CC[C@]3(C)[C@@H]1CC=C1[C@@H]4CC(C)(C)CC[C@]4(C(=O)OCc4ccccc4)CC[C@]13C)[C@]2(C)COC(=O)CCC(=O)N1CCN(CC)CC1 | 75.4 | 66.3 | Non-toxic | – |
| CCOC(=O)c1noc2c1C[C@@]1(C)[C@@H](CC[C@]3(C)[C@@H]1CC=C1[C@@H]4CC(C)(C)CC[C@]4(C(=O)OCc4ccccc4)CC[C@]13C)[C@]2(C)COC(=O)CCn1cccc1 | 52.5 | 46.2 | Non-toxic | – |
| CCOC(=O)c1noc2c1C[C@@]1(C)[C@@H](CC[C@]3(C)[C@@H]1CC=C1[C@@H]4CC(C)(C)CC[C@]4(C(=O)OCc4ccccc4)CC[C@]13C)[C@]2(C)COC(=O)[C@H](CCSC)NC(=O)OC(C)(C)C | 15.3 | 11.7 | Non-toxic | – |
| C[C@@H]1C[C@H]2[C@@H]3CCC4=CC(=O)C=C[C@]4(C)[C@@]3(F)[C@@H](O)C[C@]2(C)[C@@]1(O)C(=O)CO [DEXAMETHASONE] | 80.7 | 73.5 | – | Activity [9]: Non-toxic |
| CCOC(=O)c1noc2c1C[C@@]1(C)[C@@H](CC[C@]3(C)[C@@H]1CC=C1[C@@H]4CC(C)(C)CC[C@]4(C(=O)OCc4ccccc4)CC[C@]13C)[C@]2(C)COC(=O)CCC(=O)N[C@@H](CC(C)C)C(=O)OC | 33.1 | 25.7 | Non-toxic | – |
| CCOC(=O)c1noc2c1C[C@@]1(C)[C@@H](CC[C@]3(C)[C@@H]1CC=C1[C@@H]4CC(C)(C)CC[C@]4(C(=O)OCc4ccccc4)CC[C@]13C)[C@]2(C)COC(=O)c1cc2ccccc2[nH]1 | 9.1 | 15 | Non-toxic | – |
| CCOC(=O)c1noc2c1C[C@@]1(C)[C@@H](CC[C@]3(C)[C@@H]1CC=C1[C@@H]4CC(C)(C)CC[C@]4(C(=O)OCc4ccccc4)CC[C@]13C)[C@]2(C)COC(=O)c1cnccn1 | 8.27 | 5.92 | Non-toxic | – |
| CCOC(=O)c1noc2c1C[C@@]1(C)[C@@H](CC[C@]3(C)[C@@H]1CC=C1[C@@H]4CC(C)(C)CC[C@]4(C(=O)OCc4ccccc4)CC[C@]13C)[C@]2(C)COC(=O)c1ccccc1C(=O)N[C@@H](CCC(=O)OC)C(=O)OC | 14.8 | 8.65 | Non-toxic | – |
| CCOC(=O)c1noc2c1C[C@@]1(C)[C@@H](CC[C@]3(C)[C@@H]1CC=C1[C@@H]4CC(C)(C)CC[C@]4(C(=O)OCc4ccccc4)CC[C@]13C)[C@]2(C)COC(=O)CCSSCCC(=O)N1CCN(CC)CC1 | 22.7 | 26.8 | – | – |
| CCOC(=O)c1noc2c1C[C@@]1(C)[C@@H](CC[C@]3(C)[C@@H]1CC=C1[C@@H]4CC(C)(C)CC[C@]4(C(=O)OCc4ccccc4)CC[C@]13C)[C@]2(C)COC(=O)CCSSCCC(=O)N1CCCCC1 | 14.2 | 24.5 | Non-toxic | – |
| CCOC(=O)c1noc2c1C[C@@]1(C)[C@@H](CC[C@]3(C)[C@@H]1CC=C1[C@@H]4CC(C)(C)CC[C@]4(C(=O)OCc4ccccc4)CC[C@]13C)[C@]2(C)COC(=O)[C@H](Cc1ccccc1)NC(=O)OC(C)(C)C | 59.3 | 44.9 | Non-toxic | – |
| CC1(C)CC[C@]2(C(=O)OCc3ccccc3)CC[C@]3(C)C(=CC[C@@H]4[C@@]5(C)Cc6c(C(=O)O)noc6[C@@](C)(COC(=O)CCC(=O)N6CCOCC6)[C@@H]5CC[C@]43C)[C@@H]2C1 | – | – | – | Tmax [4]: 1.5 h; AUC(0-t) at 24 h [5]: 1290 ng·h/mL; half-life [6]: 4.49 h; Cmax [7]: 209 ng/mL; AUC(0-inf) [8]: 2020 ng·h/mL |
| CCOC(=O)c1noc2c1C[C@@]1(C)[C@@H](CC[C@]3(C)[C@@H]1CC=C1[C@@H]4CC(C)(C)CC[C@]4(C(=O)OCc4ccccc4)CC[C@]13C)[C@]2(C)COC(=O)CCC(=O)N[C@@H](CC(=O)OC)C(=O)OC | 54.3 | 37.6 | Non-toxic | – |
